Measurements published in patent publication US20240239779A1, “HERBICIDAL COMPOUNDS” (SYNGENTA CROP PROTECTION AG, priority 2021, published 2024).

Key:
Assay type in all cases: in vivo
Settings in all cases: 250 g/ha, evaluated after 13 days, 100=total damage to plant, 0=no damage to plant
[1] = test system: LOLPE; test: Post-emergence biological efficacy
Experimental: (§1) Seeds of weeds and/or crops were sown in standard soil in pots. After cultivation for 14 days under controlled conditions in a glasshouse (at 24/19° C., day/night; 16 hours light), the plants were sprayed with an aqueous spray solution derived from the formulation of the technical active ingredient in a small amount of acetone and a special solvent and emulsifier mixture referred to as IF50 (11.12% Emulsogen EL360 TM+44.44% N-methylpyrrolidone+44.44% Dowanol DPM glycol ether), to create a 50 g/l solution which was then diluted using 0.2% Genapol XO80 as diluent to give the desired final dose of test compound.
(§2) The test plants were then grown under controlled conditions in the glasshouse (at 24/18° C., day/night; 15 hours light; 50% humidity)and watered twice daily. After 13 days the test was evaluated (100=total damage to plant; 0=no damage to plant).

[2] = test system: ECHCG; test: Post-emergence biological efficacy
Experimental: as §1, §2

[3] = test system: IPOHE; test: Post-emergence biological efficacy
Experimental: as §1, §2

[4] = test system: DIGSA; test: Post-emergence biological efficacy
Experimental: as §1, §2

[5] = test system: EPHHL; test: Post-emergence biological efficacy
Experimental: as §1, §2

[6] = test system: CHEAL; test: Post-emergence biological efficacy
Experimental: as §1, §2

[7] = test system: ELEIN; test: Post-emergence biological efficacy
Experimental: as §1, §2

[8] = test system: AMAPA; test: Post-emergence biological efficacy
Experimental: as §1, §2

[9] = test system: SETFA; test: Post-emergence biological efficacy
Experimental: as §1, §2

[10] = test system: LOLPE; test: Pre-emergence biological efficacy
Experimental: as §1, with “one day” for “14 days”
(§3) The test plants were then grown under controlled conditions in the glasshouse (at 24/18° C., day/night; 15 hours light; 50% humidity) and watered twice daily. After 13 days the test was evaluated (100=total damage to plant; 0=no damage to plant).

[11] = test system: ECHCG; test: Pre-emergence biological efficacy
Experimental: as §1, with “one day” for “14 days”
as §3

[12] = test system: IPOHE; test: Pre-emergence biological efficacy
Experimental: as §1, with “one day” for “14 days”
as §3

[13] = test system: EPHHL; test: Pre-emergence biological efficacy
Experimental: as §1, with “one day” for “14 days”
as §3

[14] = test system: AMAPA; test: Pre-emergence biological efficacy
Experimental: as §1, with “one day” for “14 days”
as §3

[15] = test system: SETFA; test: Pre-emergence biological efficacy
Experimental: as §1, with “one day” for “14 days”
as §3

CCOC(=O)C1(C)CC(c2nc(-n3c(=O)cc(C(F)(F)F)n(C)c3=O)c(F)cc2Cl)=NO1 (stereo not drawn) [Compound 14, ethyl 3-[3-chloro-5-fluoro-6-[3-methyl-2,6-dioxo-4-(trifluoromethyl)pyrimidin-1-yl]-2-pyridyl]-5-methyl-4H-isoxazole-5-carboxylate]
damage to plant, LOLPE [1]: 100
damage to plant, ECHCG [2]: 100
damage to plant, IPOHE [3]: 100
damage to plant, DIGSA [4]: 100
damage to plant, EPHHL [5]: 100
damage to plant, CHEAL [6]: 100
damage to plant, ELEIN [7]: 100
damage to plant, AMAPA [8]: 100
damage to plant, SETFA [9]: 100
damage to plant, LOLPE [10]: 90
damage to plant, ECHCG [11]: 100
damage to plant, IPOHE [12]: 100
damage to plant, EPHHL [13]: 100
damage to plant, AMAPA [14]: 100
damage to plant, SETFA [15]: 100
